Data set [1] is described as follows: Protein binding in vitro (ultrafiltration). It is filed as in vitro ADME. As to conditions: human serum protein binding.
Description: Protein binding in vitro. Free- and protein-bound drug separation was achieved by ultrafiltration using commercially available membrane systems (Centrifree ultrafiltration devices with ultracel YM-T membrane, Merck). A solution of selected compound in DMSO was added to human serum (sterile-filtered from human male AB plasma, Sigma-Aldrich), to obtain the desired final concentration with 2% of co-solvent. 1 mL of the solution obtained from the sample reservoir of the ultrafiltration device was gently shaken in an orbital shaker at 37° C. for 1 h. […] The concentrations of the compounds in the ultrafiltrate and filtrate were determined using reverse-phase HPLC and the chromatographic conditions described above. […] The recovery of the ultrafiltration process was calculated in order to discover whether any compound was lost during ultrafiltration, considering the limited solubility of tested compounds.
The test system of data set [2] is MDA MB231 (breast cancer cells). Kind of data set: Cytotoxicity in human cancer cell lines, MDA MB231. As to conditions: MDA-MB-231, MDA MB231, 72 h. It is filed as cell-based. From the text: (§1) In the last phase of their study, the present inventors evaluated the effects of our hDHODH inhibitors on a series of human cancer cell lines.
Data set [3] has as its system THP1. Kind of data set: CFSE-based cytotoxic activity assay, THP1. The class given is cell-based. The note with it: THP1, 0.01-10 μM, 3 days, FIG. 5A.
Description: (§5) CFSE-based cytotoxic activity assay. […] The same experiments were repeated in the presence of uridine 100 μM. Cells were harvested and 1 μg/ml of propidium iodide was added to assign the ratio of cell death. The percentage of specific lysis was calculated as described and in accordance with the following equation: [dead targets in sample (%)−spontaneously dead targets (%))/(100−spontaneously dead targets (%))]×100. Spontaneous release was obtained by incubating cell lines in medium supplemented with the corresponding percentage of DMSO used for the dilution of compounds, whereas maximal release was obtained after treatment with triton solution.
Data set [4] deals with PHA-stimulated PBMC. Kind of data set: Immunosuppression assay, PHA-stimulated PBMC proliferation. It is filed as cell-based.
Description: Immunosuppression assay. PBMCs were isolated via the Ficoll/Isopaque (Lymphoprep), density gradient centrifugation of buffy coat leukapheresis residues from the fresh blood samples of healthy donors. Purified cells were grown and maintained in culture medium at 37° C. in a 5% CO2 humidified atmosphere. […] IC50 values were determined using nonlinear regression plots on GraphPad Prism6. Values are means±SE of three independent experiments. Where indicated, the antiproliferative effect was evaluated in the presence of 100 μM uridine.
Data set [5] concerns HEPG2 (liver hepatocellular cancer cells). Kind of data set: Cytotoxicity in human cancer cell lines, HEPG2. The class given is cell-based.
Text: as §1

For data set [6] the following is noted: 24 h, pH 7.4.
Description: Solubility assay at pH 7.4. […] The samples were shaken in an orbital shaker at 25° C. for 24 h. These suspensions were filtered through a PTFE 0.45 m filter (VWR), and the solutions were chromatographically analyzed. […] LC analysis was performed using an Agilent Zorbax SB-Phenyl Column (4.6×250, 5 μm). […] The analyses started with 40% of eluent B and the following gradient profile was used: (time min, % B) 18.0, 100%; 26.0, 100%; 28.0, 40%. […] Single compound quantification was made using the relative calibration curve which was obtained by analyzing standard solutions in MeOH. Solubility is expressed as μM concentration of the saturated solution.
The test system of data set [7] is U937. Kind of data set: Differentiation assay, U937 (CD11b). The class given is cell-based, human. The protocol: (§2) Cell lines and drug treatment.
(§3) Flow cytometric analysis. The expression of CD11b (PE-conjugated BD Bioscience San Jose, CA, USA), and CD14 (FITC-conjugated Beckam Coulter CA, USA), cell surface molecules was determined by flow cytometry analysis. […] Samples were acquired on a FACS Calibur and dead cells were excluded from the analyses, according to the use of propidium iodide (Sigma-Aldrich, Milan, Italy). Data were processed using Kaluza software version 1.2 (Beckman Coulter Fullerton, CA).
(§4) Differentiation assay. 1×10^4 cells (THP1 and U937), were plated in 96 well round-bottom plates and DHODH inhibitors were added, from 0.1 μM to 10 μM, to a volume of 200 μl of medium. The differentiation kinetics was monitored from day 1 to day 4 for U937, and to day 5 for THP1. Cells were washed and either stained with CD11b (U937), or with CD11b and CD14 (THP1), as described above. The differentiation assay was also performed in the presence of uridine 100 μM and analyzed on day 3

Data set [8] in a line: Serum stability. It is filed as in vitro ADME. The note with it: 37° C.
Description: Serum stability. A solution of the selected compound in DMSO was added to human serum (sterile-filtered from human male AB plasma, Sigma-Aldrich), to obtain the desired final concentration with 2% of co-solvent. The resulting solution was shaken in an orbital shaker at 37° C. for 24 h. At appropriate time intervals (0, 0.5, 1, 4 and 24 hours), 300 μL of the reaction mixture were withdrawn and added to 600 μL of trifluoroacetic acid (TFA), 0.1% in acetonitrile in order to deproteinize the serum. The samples were vortexed, sonicated for 3 min and then centrifuged for 5 min at 2500×g. The clear supernatant was filtered and analyzed by RP-HPLC. HPLC analyses were performed on a HP 1100 chromatograph system (Agilent Technologies, Palo Alto, CA, USA), equipped with a quaternary pump (model G1311A), a membrane degasser (G1379A), and a diode-array detector (DAD) (model G1315B), integrated into the HP1100 system. Data analyses were processed using a HP ChemStation system (Agilent Technologies). The analytical column was a ZORBAX Eclipse XDB-C18 (4.6×150 mm, 5 μm, Agilent Technologies). The mobile phase consisted of acetonitrile 0.10% TFA/0.1% TFA 70/30 at flow-rate=1.0 mL/min. […] Single compound quantification was achieved using calibration curves that were obtained by analyzing standard solutions. The results are expressed as % of unmodified parent compound at 24 h.
The subject of data set [9] is Jurkat T cells. Kind of data set: Proliferation assay, Jurkat T cells (Hoechst 33258 DNA content). The class given is cell-based. As to conditions: 72 h.
Description: Cells were maintained at 37° C. in a 5% CO2 humidified atmosphere. Cells were passaged every 2-3 days and discarded after 15 passages. […] Final dilutions were made in culture medium.
Proliferation assay. […] IC50 values were determined using nonlinear regression plots on GraphPad Prism6. Values are means±SE of three independent experiments. Where indicated, the antiproliferative effect was evaluated in the presence of 100 μM uridine.^32
Data set [10] deals with PANC-1 (pancreatic cancer cells). Description: Cytotoxicity in human cancer cell lines, PANC-1. It is filed as cell-based. As to conditions: PANC-1, 72 h.
Text: as §1

Data set [11] has as its system U937. Kind of data set: CFSE-based cytotoxic activity assay, U937. It is filed as cell-based. The note with it: U937, 0.01-10 μM, 3 days, FIG. 5A.
Description: as §5
In data set [12] the test system is A2780 (ovarian cancer cells). Kind of data set: Cytotoxicity in human cancer cell lines, A2780. It is filed as cell-based. The note with it: A2780, 72 h.
Text: as §1

For data set [13], the system named is HCT-116 (colon cancer cells). Kind of data set: Cytotoxicity in human cancer cell lines, HCT-116. It is filed as cell-based. As to conditions: HCT-116, 72 h.
Text: as §1

The test system of data set [14] is THP1. Kind of data set: Differentiation assay, THP1 (CD14). The class given is cell-based, human. The protocol: as §2, §3, §4
The target of data set [15] is recombinant hDHODH (Homo sapiens (Human), UniProt Q02127). Kind of data set: hDHODH inhibition assay (DCIP reduction). The class given is biochemical. The protocol:
Protein expression and purification. […] The vector produces hDHODH as an N-terminal GST-fusion protein. The plasmid pFN2A-hDHODH was transformed into BL21 (DE3), pyrD E. coli cells for protein production. Cells were grown at 37° C. in LB medium supplemented with 0.1 mM flavin mononucleotide. […] Triton X-100 was added to the lysate, to a final concentration of 1%, before centrifugation at 14000×g for 40 min at 4° C. The clarified supernatant was incubated with DNase I (Sigma Aldrich), for 30 min at room temperature, supplemented with 2 mM DTT and filtered through a 0.45 μm syringe filter. The GST-fused enzyme was purified from the bacterial lysate using affinity chromatography on immobilized glutathione-sepharose columns and fast protein liquid chromatography (FPLC). The GST tag was not removed for further studies.
hDHODH inhibition assay. Inhibitory activity was assessed by monitoring the reduction of 2,6-dichloroindophenol (DCIP), which is associated with the oxidation of dihydroorotate as catalyzed by the DHODH enzyme. The enzyme was preincubated for five minutes at 37° C. in Tris-buffer solution (pH 8.0), with coenzyme Q10 (100 μM), with the compounds to be tested used at different concentrations (final DMSO concentration 0.1% v/v), with DCIP (50 μM). The reaction was initiated by the addition of DHO (500 μM), and the reduction was monitored at λ=650 nm. […] Values are means±SE of three independent experiments.

A short description of data set [16]: log D (pH 7.4) shake-flask. As to conditions: n-octanol/PBS. The class given is physicochemical.
Description: C log P and log D (pH 7.4). […] The partition coefficients between n-octanol and PBS at pH 7.4 (log D^7,4), were obtained using the shake-flask technique at room temperature. In the shake-flask experiments, 50 mM of phosphate buffered saline pH 7.4 was used as the aqueous phase. The organic (n-octanol), and aqueous phases were mutually saturated by shaking for 4 h. The compounds were solubilized in the buffered aqueous phase at the highest concentration compatible with solubility and appropriate amounts of n-octanol were added. The two phases were shaken for about 20 min, by which time the partitioning equilibrium of solutes had been reached, and then centrifuged (10000 rpm, 10 min). The concentration of the solutes was measured in the aqueous phase by UV spectrophotometer (Varian Cary 50BIO); absorbance values (recorded for each compound at the wavelength of maximum absorption), were interpolated in calibration curves obtained using standard solutions of the compounds (r^2>0.99). Each log D value is an average of at least six measurements.
Data set [17] deals with PHA-stimulated PBMC. As to conditions: inhibition of PHA-stimulated PBMC proliferation; value from ref. 29; read-out: Immunosuppression IC50 ± SE; cited from earlier work.
Data set [18] has as its system Jurkat T cells. Kind of data set: Cytotoxicity assay, Jurkat T cells (CellTox green). As to conditions: 72 h, concentration causing significant (≥30%) cytotoxic effect. The class given is cell-based.
Description: Cell culture and drug treatment. […] Cells were maintained at 37° C. in a 5% CO2 humidified atmosphere. Cells were passaged every 2-3 days and discarded after 15 passages. […] Final dilutions were made in culture medium.
Cytotoxicity assay. […] Cells (5×10^3/well), were seeded in a white-opaque 96-well plate and exposed to increasing concentrations (0.001-100 μM), of each compound or vehicle (DMSO), for 72 h. Values are means±SE of three independent experiments and represent the concentrations that cause significant (≥30%), cytotoxic effects.
[19] abbreviates: with uridine, read-out: Cytotoxicity IC50 with Uridine.
Where [20] appears, read: in vitro assay, means ± SE of three experiments, read-out: hDHODH IC50 ± SE.
[21] abbreviates: enzymatic assay, values in text, read-out: hDHODH IC50.

≈ marks a conversion by molar mass, not a printed value. Where two headings read alike, the source gives them in different places.

Chain of recombinant hDHODH (Q02127 31-395): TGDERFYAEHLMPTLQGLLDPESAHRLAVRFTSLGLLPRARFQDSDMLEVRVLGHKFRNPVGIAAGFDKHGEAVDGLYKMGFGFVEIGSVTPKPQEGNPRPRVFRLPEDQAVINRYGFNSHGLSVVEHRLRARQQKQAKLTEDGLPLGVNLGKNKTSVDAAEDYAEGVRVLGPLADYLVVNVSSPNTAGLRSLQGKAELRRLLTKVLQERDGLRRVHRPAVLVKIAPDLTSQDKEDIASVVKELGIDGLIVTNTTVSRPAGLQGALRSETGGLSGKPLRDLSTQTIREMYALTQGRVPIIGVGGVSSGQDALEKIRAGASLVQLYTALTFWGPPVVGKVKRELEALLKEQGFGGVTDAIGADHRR

For `Cc1c(-c2ccc(-c3ccccc3F)cc2)nc2ccc(F)cc2c1C(=O)O` [Brequinar, brequinar], in [1], the “% bound” value was 98.83%. The IC50 is 1300 nM in [2] (read-out: Cytotoxicity IC50); above 100000 nM in data set [2] (setting [19]); above 10000 nM in data set [5] (HEPG2, 72 h, with uridine, read-out: Cytotoxicity IC50 with Uridine); 46 nM in data set [5] (HepG2, 72 h, read-out: Cytotoxicity IC50); 94200 ± 2080 nM in data set [9] (in the presence of 100 μM uridine, read-out: Proliferation IC50 ± SE + Uridine); 910 ± 70 nM in data set [9] (read-out: Proliferation IC50 ± SE). The IC50 in data set [10] (read-out: Cytotoxicity IC50) is 280 nM; in [10] (setting [19]) it was below 100 nM; in data set [12] (read-out: Cytotoxicity IC50) it was below 100 nM; in [12] (setting [19]), 15500 nM; in data set [13] (read-out: Cytotoxicity IC50), 97 nM; in data set [13] (setting [19]), 3000 nM. In addition, the “cytotoxicity” value in data set [3] was “strong and concentration-dependent cytotoxicity”; in data set [11], “strong and concentration-dependent cytotoxicity”. For the same compound, the “antiproliferative effect on PHA-activated PBMCs, times greater than teriflunomide” value in data set [4] was determined as 10 times. For the same compound, the “Solubility in PBS with 2% DMSO” value in data set [6] turned out to be 449 µM. Also, the “myeloid differentiation, CD11b expression” value in data set [7] (U937, FIG. 6A) was “strong differentiation”. Moreover, the “differentiation when uridine is added” value in data set [7] (U937, uridine 100 μM, day 3, FIG. 6C) was “reversed”; in data set [14] (THP1, uridine 100 μM, day 3, FIG. 6D), “reversed”. Further, in data set [8], the “% compound after 24 h in human serum” value amounted to 98%. The “myeloid differentiation, CD14 expression” value in [14] (THP1, FIG. 6B) is recorded as “strong differentiation”.
In the case of `Cn1nc(O)c(C(=O)Nc2c(F)c(F)c(-c3ccccc3)c(F)c2F)n1` [Compound 2], the IC50 in data set [15] (setting [20]) amounted to 45 ± 13 nM.
As to `O=C(Nc1c(F)c(F)c(-c2ccccc2)c(F)c1F)c1c(O)nn2ccccc12` [Compound 4, 2-Hydroxy-N-(2,3,5,6-tetrafluoro-[1,1′-biphenyl]-4-yl)pyrazolo[1,5-a]pyridine-3-carboxamide], the “times more potent than teriflunomide (hDHODH)” value in data set [15] (enzymatic assay, ratio of IC50) amounted to 320 times.
Consider `Cc1cccc2c(C(=O)Nc3c(F)c(F)c(-c4ccccc4)c(F)c3F)c(O)nn12` [Compound 5, 2-Hydroxy-7-methyl-N-(2,3,5,6-tetrafluoro-[1,1′-biphenyl]-4-yl)pyrazolo[1,5-a]pyridine-3-carboxamide], for which, in data set [15] (setting [21]), the IC50 is 4.3 nM.
As for `Cn1c(=O)c(C(=O)Nc2c(F)c(F)c(-c3ccccc3)c(F)c2F)c2ccccn21` [Compound 7, 1-Methyl-2-oxo-N-(2,3,5,6-tetrafluoro-[1,1′-biphenyl]-4-yl)-1,2-dihydropyrazolo[1,5-a]pyridine-3-carboxamide], the IC50 in data set [15] (setting [20]) is above 5000 nM.
For `O=C(Nc1ccc(Oc2ccccc2)cc1)c1c(O)nn2ccccc12` [Compound 8, 2-Hydroxy-N-(4-phenoxyphenyl)pyrazolo[1,5-a]pyridine-3-carboxamide], the IC50 in data set [15] (setting [21]) amounted to 760 nM; in [15] (setting [20]) it was 760 ± 136 nM.
Consider `Cc1cc(NC(=O)c2c(O)nn3ccccc23)ccc1Oc1ccccc1` [Compound 9, 2-Hydroxy-N-(3-methyl-4-phenoxyphenyl)pyrazolo[1,5-a]pyridine-3-carboxamide], for which the IC50 in [15] (setting [20]) came to 480 ± 31 nM.
With `Cc1cc(Oc2ccccc2)c(C)cc1NC(=O)c1c(O)nn2ccccc12` [Compound 10, N-(2,5-Dimethyl-4-phenoxyphenyl)-2-hydroxypyrazolo[1,5-a]pyridine-3-carboxamide], the IC50 in data set [15] (setting [21]) and in data set [15] (setting [20]) was 43 nM in each case.
As to `O=C(Nc1c(F)c(F)c(-c2ccccc2)c(F)c1F)c1c(O)nn2c1CCCC2` [Compound 30, 2-Hydroxy-N-(2,3,5,6-tetrafluoro-[1,1′-biphenyl]-4-yl)-4,5,6,7-tetrahydropyrazolo[1,5-a]pyridine-3-carboxamide], in data set [15] (setting [21]), the IC50 is 5.9 nM.
Regarding `O=C(Nc1c(F)c(F)c(-c2cccc(F)c2)c(F)c1F)c1c(O)nn2ccccc12` [Compound 32, 2-Hydroxy-N-(2,3,3′,5,6-pentafluoro-[1,1′-biphenyl]-4-yl)pyrazolo[1,5-a]pyridine-3-carboxamide], the logD in data set [16] was above 3. In data set [15] (setting [21]), the IC50 worked out at 2 nM.
In turn, `O=C(Nc1c(F)c(F)c(-c2cccc(C(F)(F)F)c2)c(F)c1F)c1c(O)nn2ccccc12` [Compound 33, 2-Hydroxy-N-(2,3,5,6-tetrafluoro-3′-(trifluoromethyl)-[1,1′-biphenyl]-4-yl)pyrazolo[1,5-a]pyridine-3-carboxamide] returned a logD in data set [16] above 3. The IC50 in data set [15] (setting [21]) is 2.3 nM.
Take `C/C(O)=C(\C#N)C(=O)Nc1ccc(C(F)(F)F)cc1` [Teriflunomide, teriflunomide]: the IC50 in data set [17] was 54300 nM. The “Solubility in PBS” value in data set [6] came out at 2692 µM (≈ 727 µg/mL). The “Cytotoxicity (effect ≥30%)” value in data set [18] turned out to be 53 ± 3 µM.

These data come from patent US12162877B2, “Human dihydroorotate dehydrogenase (hDHODH) inhibitors and their use in targeting oncological diseases sensitive to pyrimidine starvation” (DRUG DISCOVERY AND CLINIC S.R.L., priority 2018, dated 2024).
